Test results reported in patent US10364222B2, “Cyclic amine derivative and medical use thereof” (Toray Industries, Inc., priority 2016, dated 2019).

Experiments:
[1] = target: T1, ligand-binding domain of RORγ (RORγ-LBD) (Homo sapiens, UniProt P51449); test: Inhibitory effect on RORγ-coactivator binding (LanthaScreen TR-FRET RORγ Coactivator Assay); conditions: at 33 μmol/L of the test compound; read-out: RORγ-coactivator binding inhibition rate (%)
T1 construct: purchased Invitrogen
T1 sequence (P51449 269-508 limits assumed): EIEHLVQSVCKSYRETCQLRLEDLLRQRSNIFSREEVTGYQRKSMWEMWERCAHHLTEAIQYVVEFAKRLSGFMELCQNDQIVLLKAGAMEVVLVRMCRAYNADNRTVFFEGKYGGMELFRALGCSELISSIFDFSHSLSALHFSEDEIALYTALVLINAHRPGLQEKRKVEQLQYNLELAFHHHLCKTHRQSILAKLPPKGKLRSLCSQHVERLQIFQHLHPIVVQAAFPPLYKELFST
Outline: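 TR-FRET: 4 nmol/L GST-RORγ-LBD with compound (1% DMSO) in Coregulator Buffer D plus 5 mmol/L DTT, then 150 nmol/L fluorescein-TRAP220/DRIP-2 and 32 nmol/L Tb-anti-GST antibody; 16–24 hours at room temperature. 520/495 nm ratio (320 nm excitation), background-corrected against control, gives % inhibition of coactivator binding.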

[2] = system: IL-17 production in mouse splenocytes; test: Suppressive effect on IL-17 production by IL-23 stimulation in mouse splenocytes; type: cell-based; conditions: Splenocyte, 72 h, at 5 μmol/L of the test compound, 10 ng/mL human IL-23, 3 days, read-out: IL-17 production inhibition rate (%)
Outline: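 Splenocytes from male C57BL/6J mice (3×10^5/well, with 100 U/mL human IL-2) stimulated with 10 ng/mL human IL-23 plus compound (0.1% DMSO) for 3 days at 37 °C. Supernatant IL-17 measured by ELISA; inhibition calculated against unstimulated and IL-23-only wells.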

Row | SMILES | inhibition at 33 µM [1] [%] | inhibition at 5 µM [2] [%]
1 | O=C(Nc1ccc(-c2ccccc2OC(F)(F)F)c(Cl)c1)[C@H]1CCCCN1C(=O)Cn1nccn1 [Example 66, (R)-1-(2-(2H-1,2,3-triazol-2-yl)acetyl)-N-(2-chloro-2′-(trifluoromethoxy)-[1,1′-biphenyl]-4-yl)piperidine-2-carboxamide] | 103 | 99.5
2 | Cc1nnc(CC(=O)N2CCCC[C@@H]2C(=O)Nc2ccc(-c3ccccc3OC(F)(F)F)c(Cl)c2)o1 [Example 67, (R)-N-(2-chloro-2′-(trifluoromethoxy)-[1,1′-biphenyl]-4-yl)-1-(2-(5-methyl-1,3,4-oxadiazol-2-yl)acetyl)piperidine-2-carboxamide] | 99.1 | 98.7
3 | COC(=O)CCCC(=O)N1CCCC[C@@H]1C(=O)Nc1ccc(-c2ccccc2OC(F)(F)F)c(Cl)c1 [Example 69, methyl (R)-5-(2-((2-chloro-2′-(trifluoromethoxy)-[1,1′-biphenyl]-4-yl)carbamoyl)piperidin-1-yl)-5-oxopentanoate] | 95.9 | 99.5
